Results from US9994587B2, “HIV protease inhibitors” (priority 2014, dated 2018).

tested on: HIV-1 (NL4-3 strain); experiment: Viral Kinetics GFP Reporter (ViKinG) assay; type: cell-based; conditions: Human immunodeficiency virus 1, NL43; 50% NHS; MT4-GFP cells infected with HIV-1 NL4-3; mean of at least two independent experiments
Excerpt: Viral Kinetics GFP Reporter (ViKinG) Assay
The ViKinG assay is an in vitro kinetic assay that employs the MT4-gag-GFP reporter cell line (Wang et al., “Assessment of the susceptibility of mutant HIV-1 to antiviral agents.” J Virological Methods 165:230-37 (2010)) to quantify the number of new cells infected in each round of replication. The purpose of the ViKinG assay is to identify agents that inhibit HIV progression. Briefly, HIV infection results in tat transactivation of the stably expressed HIV LTR promoter to drive gagGFP expression. Thus, an increase in the number of GFP-MT4 cells results following HIV infection.
MT4-GFP cells (250,000 cells/ml) were bulk-infected with HIV-1 (NL4-3 strain) at low multiplicity of infection (MOI) in RPMI+10% FBS for 24 hours. Cells were then washed once in RPMI+10% FBS and resuspended RPMI+10% or 50% normal human serum (NHS). Test compounds were serial-diluted in DMSO on an ECHO® liquid handling platform (Labcyte Corp., Sunnyvale, Calif.), along with a triple drug control (integrase, protease and NNRTI compounds). The infected MT4-GFP cells were added to a 384-well poly-D-lysine coated black plate with clear bottom in which the diluted test compounds were placed. The cells were seeded at 8,000 cells per well and the final DMSO concentration was 0.4%. The infected cells (Green GFP cells) were quantified at both 24 and 48 hours post incubation using Acumen® eX3 (TTP Labtech Ltd., Hertfordshire, United Kingdom). Viral reproductive ratio (R0) was determined using the number of infected cells at 48 hours divided by the number of infected cells at 24 hours. Percent viral growth inhibition was calculated by [1−(R−Rtripledrug)/(RDMSO−Rtripledrug)]*100. Compound potency IP or IC50 was determined by a 4-parameter dose response curve analysis.

SMILES | IC50
COC(=O)N[C@H](C(=O)Nc1cccc(F)c1CC[C@@H]1CNCC2(CCOCC2)O1)[C@@H](c1ccc(Cl)cc1)C1CCOCC1 [Example 161, methyl[(1S,2R)-2-(4-chlorophenyl)-1-[(2-{2-[(2R)-1,9-dioxa-4-azaspiro[5.5]undec-2-yl]ethyl}-3-fluorophenyl)carbamoyl]-2-(tetrahydro-2H-pyran-4-yl)ethyl]carbamate] | 130 nM
COC(=O)N[C@H](C(=O)Nc1cncc(F)c1CC[C@@H]1CNCC2(CCN(C(C)=O)CC2)O1)[C@@H](c1ccc(Cl)cc1)c1cc(F)cc(F)c1 [Example 153, methyl{(1S)-2-[(4-{2-[(2R)-9-acetyl-1-oxa-4,9-diazaspiro[5.5]undec-2-yl]ethyl}-5-fluoropyridin-3-yl)amino]-1-[(S)-(4-chlorophenyl)(3,5-difluorophenyl)methyl]-2-oxoethyl}carbamate] | 310 nM
N[C@H](C(=O)Nc1cncc(F)c1CC[C@@H]1CNCC2(CCOCC2)O1)C(c1ccc(F)cc1)c1ccc(F)cc1 [Example 101, N-(4-{2-[(2R)-1,9-dioxa-4-azaspiro[5.5]undec-2-yl]ethyl}-5-fluoropyridin-3-yl)-4-fluoro-β-(4-fluorophenyl)-L-phenylalaninamide] | 110 nM
N[C@H](C(=O)Nc1cncc(F)c1CC[C@@H]1CNCC2(CCOCC2)O1)[C@@H](c1ccc(Cl)cc1)c1cc(F)cc(F)c1 [Example 155, (βS)-4-chloro-β-(3,5-difluorophenyl)-N-(4-{2-[(2R)-1,9-dioxa-4-azaspiro[5.5]undec-2-yl]ethyl}-5-fluoropyridin-3-yl)-L-phenylalaninamide] | 140 nM
N[C@H](C(=O)Nc1cccc(F)c1CC[C@@H]1CNCC2(CCOCC2)O1)[C@@H](c1ccc(Cl)cc1)c1cc(F)cc(F)c1 [Example 96, (βS)-4-chloro-β-(3,5-difluorophenyl)-N-(2-{2-[(2R)-1,9-dioxa-4-azaspiro[5.5]undec-2-yl]ethyl}-3-fluorophenyl)-L-phenylalaninamide] | 80 nM
CC(=O)N1CCC2(CC1)CNC[C@@H](CCc1c(F)cncc1NC(=O)[C@@H](N)[C@@H](c1ccc(Cl)cc1)c1cc(F)cc(F)c1)O2 [Example 152, (βS)-N-(4-{2-[(2R)-9-acetyl-1-oxa-4,9-diazaspiro[5.5]undec-2-yl]ethyl}-5-fluoropyridin-3-yl)-4-chloro-β-(3,5-difluorophenyl)-L-phenylalaninamide] | 320 nM
CC(=O)N1CCC2(CC1)CNC[C@@H](CCc1c(F)cccc1NC(=O)[C@@H](N)[C@@H](c1ccc(Cl)cc1)c1cc(F)cc(F)c1)O2 [Example 95, (2S,3S)—N-(2-(2-((R)-9-Acetyl-1-oxa-4,9-diazaspiro[5.5]undecan-2-yl)ethyl)-3-fluorophenyl)-2-amino-3-(4-chlorophenyl)-3-(3,5-difluorophenyl)propanamide] | 150 nM
N[C@H](C(=O)Nc1cncc(F)c1CC[C@@H]1CNCC2(CCOCC2)O1)[C@@H](c1ccc(Cl)cc1)c1cccc(OC(F)(F)F)c1 [Example 156, (βS)-4-chloro-N-(4-{2-[(2R)-1,9-dioxa-4-azaspiro[5.5]undec-2-yl]ethyl}-5-fluoropyridin-3-yl)-β-[3-(trifluoromethoxy)phenyl]-L-phenylalaninamide] | 480 nM

target: T1, wildtype HIV-1 protease (Human immunodeficiency virus type 1 group M subtype B, UniProt P04585); experiment: Assay for inhibition of microbial expressed HIV protease (Pepcleav); type: biochemical; conditions: wild type HIV-1 protease 20 pM, peptide substrate 400 micromolar, pH 5.5; mean of at least two independent experiments
T1 construct: preincubated with the HIV-1 protease (wild type) enzyme in assay buffer; made in house; host or cells: Escherichia coli
How it was run: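 E. coli-expressed enzyme preincubated with inhibitor 30 min at room temperature in 50 mM sodium acetate pH 5.5, 100 mM NaCl, 0.1% BSA, then 400 micromolar peptide substrate added with 20 picomolar protease (final), 1 h at 30° C. Product quantified by LC-MS/MS peak area after formic acid/indinavir quench.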

SMILES | IC50
COC(=O)N[C@H](C(=O)Nc1ccccc1CC[C@@H]1CNC[C@@H](CSc2ccc(Cl)c(Cl)c2)O1)C(c1ccccc1)c1ccccc1 [Example 19, methyl N-[(1S)-1-benzhydryl-2-[[2-[2-[(2R,6S)-6-[(3,4-dichlorophenyl)sulfanylmethyl]morpholin-2-yl]ethyl]phenyl]amino]-2-oxo-ethyl]carbamate] | 8.7 nM
COC(=O)N[C@H](C(=O)Nc1ccccc1CC[C@@H]1CNC[C@@H](CSc2ccc(Cl)cc2)O1)C(c1ccccc1)c1ccccc1 [Example 7, methyl N-[(1S)-1-benzhydryl-2-[[2-[2-[(2R,6S)-6-[(4-chlorophenyl)sulfanylmethyl]morpholin-2-yl]ethyl]phenyl]amino]-2-oxo-ethyl]carbamate] | 2 nM
N[C@H](C(=O)Nc1cccc(F)c1CC[C@@H]1CNC[C@@H](CSc2ccc(Cl)cc2)O1)C(c1ccc(F)cc1)c1ccc(F)cc1 [Example 121, N-(2-{2-[(2R,6S)-6-{[(4-chlorophenyl)sulfanyl]methyl}morpholin-2-yl]ethyl}-3-fluorophenyl)-4-fluoro-β-(4-fluorophenyl)-L-phenylalaninamide] | 5.2 nM
COC(=O)N[C@H](C(=O)Nc1ccccc1CC[C@@H]1CNC[C@@H](COc2ccc3cc[nH]c3c2)O1)C(c1ccccc1)c1ccccc1 [Example 39, N-[2-(2-{(2R,6S)-6-[(1H-indol-6-yloxy)methyl]morpholin-2-yl}ethyl)phenyl]-Na-(methoxycarbonyl)-b-phenyl-L-phenylalaninamide] | 100 nM
COC(=O)N[C@H](C(=O)Nc1ccccc1CC[C@@H]1CNC[C@@H](COc2ccc(-c3ccncc3)cc2)O1)C(c1ccccc1)c1ccccc1 [Example 52, N-α-(methoxycarbonyl)-β-phenyl-N-(2-{2-[(2R,6S)-6-{[4-(pyridin-4-yl)phenoxy]methyl}morpholin-2-yl]ethyl}phenyl)-L-phenylalaninamide] | 4 nM
COC(=O)N[C@H](C(=O)Nc1cc(F)ccc1CC[C@@H]1CNC[C@@H](COc2ccc(C#N)cc2)O1)C(c1ccccc1)c1ccccc1 [Example 72, N-[2-(2-{(2R,6S)-6-[(4-cyanophenoxy)methyl]morpholin-2-yl}ethyl)-5-fluorophenyl]-Nα-(methoxycarbonyl)-β-phenyl-L-phenylalaninamide] | 23 nM
COC(=O)N[C@H](C(=O)Nc1ccccc1CC[C@@H]1CNC[C@@H](CCOc2ccc(C#N)cc2)O1)C(c1ccccc1)c1ccccc1 [Example 64, N-[2-(2-{(2R,6R)-6-[2-(4-cyanophenoxy)ethyl]morpholin-2-yl}ethyl)phenyl]-Nα-(methoxycarbonyl)-β-phenyl-L-phenylalaninamide] | 28 nM
COC(=O)N[C@H](C(=O)Nn1c(CC[C@@H]2CNC[C@@H](COc3ccc(C#N)cc3)O2)cccc1=O)C(c1ccccc1)c1ccccc1 [Example 90, N-[6-(2-{(2R,6S)-6-[(4-cyanophenoxy)methyl]morpholin-2-yl}ethyl)-2-oxopyridin-1 (2H)-yl]-Nα-(methoxycarbonyl)-β-phenyl-L-phenylalaninamide] | 53.3 nM
COC(=O)N[C@H](C(=O)Nc1ccccc1CC[C@@H]1CNC[C@@H](COc2ccc(-n3cccn3)cc2)O1)C(c1ccccc1)c1ccccc1 [Example 43, N-α-(methoxycarbonyl)-β-phenyl-N-(2-{2-[(2R,6S)-6-{[4-(1H-pyrazol-1-yl)phenoxy]methyl}morpholin-2-yl]ethyl}phenyl)-L-phenylalaninamide] | 4.7 nM
COC(=O)N[C@H](C(=O)Nc1ccccc1CC[C@@H]1CNC[C@@H](CSc2ccc(Cl)cc2)O1)[C@H](c1ccccc1)c1ccncc1 [Example 69, (βR)-N-(2-{2-[(2R,6S)-6-{[(4-chlorophenyl)sulfanyl]methyl}morpholin-2-yl]ethyl}phenyl)-Nα-(methoxycarbonyl)-β-pyridin-4-yl-L-phenylalaninamide] | 0.3 nM
COC(=O)N[C@H](C(=O)Nc1nccnc1CC[C@@H]1CNC[C@@H](CSc2ccc(Cl)cc2)O1)C(c1ccccc1)c1ccccc1 [Example 83, methyl N-[(1S)-1-benzhydryl-2-[[3-[2-[(2R,6S)-6-[(4-chlorophenyl)sulfanylmethyl]morpholin-2-yl]ethyl]pyrazin-2-yl]amino]-2-oxo-ethyl]carbamate] | 27 nM
N#Cc1cccc(SC[C@@H]2CNC[C@@H](CCc3c(F)cncc3NC(=O)[C@@H](N)C(c3ccc(F)cc3)c3ccc(F)cc3)O2)c1 [Example 102, N-(4-{2-[(2R,6S)-6-{[(3-cyanophenyl)sulfanyl]methyl}morpholin-2-yl]ethyl}-5-fluoropyridin-3-yl)-4-fluoro-β-(4-fluorophenyl)-L-phenylalaninamide] | 0.47 nM
COC(=O)N[C@H](C(=O)Nc1ccccc1CC[C@@H]1CNC[C@@H](CSc2ccc(Cl)cc2C)O1)C(c1ccccc1)c1ccccc1 [Example 26, methyl N-[(1S)-1-benzhydryl-2-[[2-[2-[(2R,6S)-6-[(4-chloro-2-methyl-phenyl)sulfanylmethyl]morpholin-2-yl]ethyl]phenyl]amino]-2-oxo-ethyl]carbamate] | 1.3 nM
